Target: T1, 5-Lipoxygenase (Homo sapiens, UniProt P09917)
T1 construct: endogenous in cells; host or cells: human heparinized whole blood (blood leukocytes), stimulated with calcium ionophore A23187
T1 sequence (P09917 1-674): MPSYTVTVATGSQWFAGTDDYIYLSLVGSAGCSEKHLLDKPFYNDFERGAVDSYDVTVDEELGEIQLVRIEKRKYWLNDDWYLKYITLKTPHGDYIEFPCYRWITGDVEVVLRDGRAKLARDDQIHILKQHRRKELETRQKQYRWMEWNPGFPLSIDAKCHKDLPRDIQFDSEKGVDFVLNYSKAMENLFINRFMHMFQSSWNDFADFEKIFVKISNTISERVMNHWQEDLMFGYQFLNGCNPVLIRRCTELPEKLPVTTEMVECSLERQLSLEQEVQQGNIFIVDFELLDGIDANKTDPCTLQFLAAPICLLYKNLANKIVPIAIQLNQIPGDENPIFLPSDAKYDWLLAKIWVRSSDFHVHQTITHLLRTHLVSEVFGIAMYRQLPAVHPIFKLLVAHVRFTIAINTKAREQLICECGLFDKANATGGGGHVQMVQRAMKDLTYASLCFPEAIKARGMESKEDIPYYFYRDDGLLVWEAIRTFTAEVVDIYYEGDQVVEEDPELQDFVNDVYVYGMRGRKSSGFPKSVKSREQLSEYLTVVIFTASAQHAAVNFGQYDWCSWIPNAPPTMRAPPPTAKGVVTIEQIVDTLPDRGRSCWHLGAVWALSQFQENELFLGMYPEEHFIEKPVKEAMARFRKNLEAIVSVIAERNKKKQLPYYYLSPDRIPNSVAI
Test: Inhibition of calcium ionophore-induced LTB4 biosynthesis in human whole blood
Format: cell-based
Conditions: A23187 8.3 μM; for IC50: human heparinized whole blood, 15 min preincubation at 37° C., 30 min, LTB4 by radioimmunoassay, read-out: IC50, in vitro inhibitory potency against 5-lipoxygenase from stimulated LTB4 formation in human whole blood
Method: Inhibition of leukotriene biosynthesis was evaluated in an assay, involving calcium ionophore-induced LTB4 biosynthesis expressed human whole blood. Human heparinized whole blood was preincubated with test compounds or vehicle for 15 min at 37° C. followed by calcium ionophore A23187 challenge (final concentration of 8.3 μM) and the reaction terminated after 30 min by adding two volumes of methanol containing prostaglandin B2 as an internal recovery standard. The methanol extract was analyzed for LTB4 using a commercially available radioimmunoassay.

[1] = human whole blood, read-out: % inhibition of stimulated LTB4 formation in human whole blood

**Q.** For COC1(/C=C/C(C)OCc2ccc3ccccc3c2)CCOCC1 (stereo not drawn) [Example 4, 4-methoxy-4-[3-methyl-3-((napth-2yl)methoxy)- trans-prop-1-enyl]tetrahydropyran], which inhibition at 12.5 µM [1] is on record?
**A.** 99%

**Q.** Which inhibition at 0.39 µM [1] does the source give for COC1(/C=C/C(=O)NCc2ccc3c(ccc(=O)n3C)c2)CCOCC1 [Example 21] here?
**A.** 50%

**Q.** Which IC50 does the source give for COC1(C#CCOCc2ccc3ccccc3c2)CCOCC1 [Example 1, 4-methoxy-4-[3-((napth-2-yl)methoxy)-prop-1-ynyl]tetrahydropyran] here?
**A.** 3800 nM

**Q.** How did the inhibition at 12.5 µM [1] turn out when COC1(/C=C/COCC#Cc2ccccn2)CCOCC1 [Example 22, 4-methoxy-4-[3-((2-(pyrid-2-yl)ethynyl)methoxy)-trans-propen-1-yl]tetrahydropyran] was run?
**A.** 18%

**Q.** With COC1(CCCOCc2ccc3ccccc3c2)CCOCC1 [Example 5, 4-methoxy-4-[3-((napth-2yl)methoxy)-prop-1-yl]tetrahydropyran] as the compound, how does the IC50 read?
**A.** 1500 nM

**Q.** With COC1(/C=C/CSc2ccc3ccccc3c2)CCOCC1 [Example 19, 4-methoxy-4-[3-(napth-2-ylthioxy)-trans-prop-1-enyl]tetrahydropyran] as the compound, how does the inhibition at 0.1 µM (at 0.10 μM, human whole blood, read-out: % inhibition of stimulated LTB4 formation in human whole blood) read?
**A.** 34%

**Q.** COC1(/C=C/C(=O)NCc2ccc3ccccc3c2)CCOCC1 [Example 20, 3-(4-methoxytetrahydropyran-4-yl)-N-((napth-2-yl)methyl)-trans-propionyl amide] was tested. Which IC50 did it give?
**A.** 260 nM

**Q.** COC1(C#CC(C)OCc2ccc3ccccc3c2)CCOCC1 (centres unmarked) [Example 2, 4-methoxy-4-[3-methyl-3-(((napth-2yl)methoxy))-prop-1-ynyl]tetrahydropyran] was tested. Which inhibition at 12.5 µM [1] did it give?
**A.** 95%

**Q.** Which inhibition at 0.39 µM [1] does the source give for COC1(/C=C/COCc2ccc3c(ccc(=O)n3C)c2)CCOCC1 [Example 6, 4-methoxy-4-[3-((1,2-dihydro-1-methyl-2-oxoquinolin-6-yl)methoxy)-trans-prop-1-enyl]tetrahydropyran] here?
**A.** 51%

**Q.** How did the inhibition at 12.5 µM [1] turn out when COC1(/C=C/COCc2ccc(-c3ccccc3)cc2)CCOCC1 [Example 8, 4-methoxy-4-[3-((4-phenylphen-1-yl)methoxy)-trans-prop-1-enyl]tetrahydropyran] was run?
**A.** 11%

**Q.** Which IC50 does the source give for COC1(/C=C/COCc2ccc3ccccc3c2)CCOCC1 [Example 3] here?
**A.** 700 nM

From patent publication US5350765A, “Ether-containing inhibitors of 5-lipoxygenase” (Abbott Laboratories, priority 1993, dated 1994)
